Experimental data reported in publication PMC5435364 (PLoS Pathogens, 2017).

Tested on: Qa-1
Assay: Qa-1/peptide binding assay (flow cytometry-based competition with biotinylated Qdm)
Parameters: species or system mouse
Details: Qa-1 transfected HeLa cells, 0.5 μM biotinylated Qdm + 5 or 10 μM unlabeled competing peptide, 1.5 hours at 4°C, Fig 2A

With OT-I: negative control OT-I peptide the “Competition with bio-Qdm for binding to Qa-1 (decrease in streptavidin-APC staining)” value was “unable to do so”.
